Data set [1] deals with cardiac sympathetic neurons (NET-mediated neuronal uptake). Nature of the data set: Isolated working rat heart model: neuronal uptake and clearance kinetics. The note with it: isolated working rat heart (perfused, ex vivo), read-out: clearance rate from sympathetic neurons, major half-time (T1/2) (converted). The procedure:
(§1) The radiotracer was infused into the heart for 10 minutes to measure the tracer uptake rate into cardiac sympathetic neurons (Kup, shown in units of ml/min/g tissue wet). Then, the heart was infused with normal heart perfusate to measure the tracer clearance rate from the heart over 2 hours.
(§2) Experiments were conducted to test ^11C-phenoxyethylguanidine (PEG), e.g., to establish baseline values for the NET transport rate (Kup, expressed in units of mL perfusate/min/g wet) and the clearance rate from sympathetic neurons (T1/2, expressed in units of hours).

Data set [2] has as its system cardiac sympathetic neurons. Described as above. The procedure: as §1, §2
A short description of data set [3]: Metabolic breakdown in monkey plasma (reverse-phase HPLC of venous blood samples). To be noted: monkey plasma. The data set is classed as in vivo, rhesus macaque monkey. As for the experimental part:
In some of the microPET studies, venous blood samples (e.g., n=6) were drawn to assess the metabolic breakdown of [^18F]4F-MHPG in plasma (see Table 1). Plasma was processed for injection onto a reverse-phase HPLC system equipped with a radiation detector. The percentages of intact parent tracer and radiolabeled metabolites were determined as a function of time. In this system, [^18F]4-MHPG has a retention time Rt of approximately 11.2 minutes while the main polar radiometabolite formed has an Rt of approximately 7.9 minutes.

A short description of another data set: Biodistribution in rats. The data set is classed as in vivo, rat. The note with it: 30 minutes after injection, n=5. The procedure: During the development of embodiments of the technology, data were collected from bioevaluation studies of [^18F]4F-MHPG. […]
During the development of embodiments of the technology provided herein, the biodistribution of [^18F]4F-MHPG into the organs of rats was assessed. In particular, four time points (Table 3) were collected and used to derive human radiation absorbed dose estimates using the OLINDA/EXM 1.0 software package (see, e.g., Stabin et al. (2005) “OLINDA/EXM; the second-generation personal computer software for internal dose assessment in nuclear medicine”, J Nucl Med. 46: 1023-7). […] These values were entered into the Dynamic Bladder model of OLINDA/EXM, assuming a 4.0-hour void interval. Organs with the highest absorbed dose estimates included the urinary bladder wall (0.666 rad/mCi), […] (0.221 rad/mCi), small intestine (0.201 rad/mCi), and the heart wall (0.201 rad/mCi). An ‘effective dose’ of 0.091 rem/mCi was estimated for [^18F]4F-MHPG. Under United States Federal Regulations governing research with a new radiopharmaceutical (21 CFR § 361.1), the maximum allowable radiation absorbed dose to an individual organ (other than the gonads) is 5 rad. Considering the maximum estimated absorbed dose (urinary bladder wall; 0.666 rad/mCi), initial PET studies in human subjects could use a maximum of 7.5 mCi of [^18F]4F-MHPG. This would correspond to an ‘effective dose’ of 0.68 rem.

The subject of data set [4] is cardiac sympathetic nerve terminals. As to the kind of experiment: MicroPET imaging and myocardial kinetics (compartmental modeling, Patlak graphical analysis) in monkeys. The format is in vivo, rhesus macaque monkey. The note with it: indirect evidence from myocardial kinetics in monkeys. The procedure:
A series of microPET imaging studies were performed in the macaque model to assess image quality and tracer kinetics. In most of these the time course of the metabolic breakdown of [^18F]4F-MHPG in plasma was also determined. The studies are summarized below in Table 1.
During the development of embodiments of the technology provided herein, the kinetics of [^18F]4F-MHPG in monkey hearts was assessed using either compartmental modeling or Patlak graphical analysis to obtain quantitative measures of regional cardiac sympathetic nerve density.
For some analyses, a simplified compartmental model that assumed irreversible trapping inside nerve terminals was used to estimate the model rate constants K1 (ml/min/g), k2 (min^−1), k3 (min^−1), and a blood volume fraction BV (dimensionless) (see, e.g., FIG. 7). In both the control studies and DMI blocking studies, the model quickly converged to a single global minimum in just a few iterations of the nonlinear regression analysis (FIG. 8). […] This aggregate parameter provides a stable measure of cardiac nerve density that declined in a dose-dependent manner with increasing DMI dose (FIG. 9, “Kinetic modeling”).
For some analyses, Patlak graphical analysis was used, which uses a mathematical transformation of the kinetic data Cp(t) and Ct(t) to generate a Tatlak plot′ having a characteristic linear phase (see, e.g., Patlak and Blasberg (1985) “Graphical evaluation of blood-to-brain transfer constants from multiple-time uptake data. Generalizations.” J Cereb Blood Flow 5: 584-90). The slope of the linear portion of a Patlak plot, Kp (ml/min/g), provides an alternate estimate of the ‘net uptake rate constant’ Ki (ml/min/g). Thus, for the model structure used (FIG. 7), the slope of the Patlak plot is given by Kp≈(K1k3)/(k2+k3).
During the development of embodiments of the technology provided herein, the myocardial kinetics of [^18F]4F-MHPG was assessed using Patlak graphical analysis and metabolite-corrected plasma input functions. In this example, the Patlak plot is highly linear (r^2=1.00) and the estimated Patlak slope Kpatlak=0.252 ml/min/g. […] As such, regional estimates of the Patlak slope from Patlak analysis of the kinetics of [^18F]4F-MHPG serve as robust measures of regional cardiac sympathetic nerve density in patients with heart diseases.

`N=C(N)NCCOc1ccc(F)cc1` [4F-PEG, ^11C-4-fluoro-phenoxyethylguanidine]: the half-life in data set [1] is 3.5 h. For the same compound, in data set [2], the “neuronal uptake rate / NET transport rate (Kup)” value amounted to 7.25 mL/min/g wet.

Consider `N=[11C](N)NCC(O)c1cccc(O)c1` (centres unmarked) [GMO, [^11C]guanyl-meta-octopamine, reference compound], for which the “T1/2 for metabolic breakdown in plasma” value in data set [3] was “approximately 13 minutes”.

With `N=C(N)NCCOc1cccc(O)c1` [MHPEG, ^11C-meta-hydroxy-phenoxyethylguanidine], in data set [2], the “neuronal uptake rate / NET transport rate (Kup)” value came to 5.37 mL/min/g wet and the “vesicular trapping / retention” value was “complete trapping”.

Regarding `N=C(N)NCCOc1ccccc1` [PEG, ^11C-phenoxyethylguanidine], the half-life in data set [1] is 5.7 h. Moreover, in data set [2], the “neuronal uptake rate / NET transport rate (Kup)” value turned out to be 5.37 mL/min/g wet.

Turning to `N=C(N)NCCc1ccc(F)c(O)c1` [[^11C]4F-MHPG] [^11C-4-fluoro-meta-hydroxyphenethylguanidine], in “Biodistribution in rats”, the “tissue concentration, adrenal medulla” value is recorded as 0.56 ± 0.21 percentage of the injected dose per gram; the “tissue concentration, blood” value was 0.08 ± 0.01 percentage of the injected dose per gram; the “tissue concentration, left ventricle” value is reported as 1.77 ± 0.27 percentage of the injected dose per gram; the “tissue concentration, liver” value was 1.22 ± 0.18 percentage of the injected dose per gram. In addition, in the data set “Biodistribution in rats”, the “tissue concentration, lung” value is 0.56 ± 0.15 percentage of the injected dose per gram; the “tissue concentration, muscle” value was 0.07 ± 0.01 percentage of the injected dose per gram; the “tissue concentration, spleen” value is recorded as 0.52 ± 0.10 percentage of the injected dose per gram.

Regarding `N=[11C](N)NCCOc1ccc(O)c(F)c1` [^11C-3F-PHPEG, ^11C-3-fluoro-para-hydroxy-phenoxyethylguanidine], the “neuronal uptake rate / NET transport rate (Kup)” value in data set [2] is listed as 4.26 mL/min/g wet.

Regarding `N=[11C](N)NCCOc1ccc(F)c(O)c1` [^11C-4F-MHPEG, ^11C-4-fluoro-meta-phenoxyethylguanidine], in data set [2], the “neuronal uptake rate / NET transport rate (Kup)” value was 2.66 mL/min/g wet and the “vesicular trapping / retention” value was “effectively trapped inside storage vesicles”.

Consider `N=C(N)NCC1COc2ccc(O)cc2O1` (centres unmarked) [^11C-7H-GOX, ^11C-7-hydroxy-guanoxan], for which, in data set [2], the “retention time, compared between the two ring hydroxylated guanoxan analogs” value is recorded as “longer retention time” and the “uptake, compared between the two ring hydroxylated guanoxan analogs” value is given as “more rapid uptake”.

Consider `N=C(N)NCCc1ccc([18F])c(OS(=O)(=O)O)c1` [sulfur conjugate of [^18F]4-MHPG], for which, in data set [4], the “activity at the norepinephrine transporter (NET)” value was “inactive”.
